Data taken from US8309731B2, “Electronic device including phenanthroline derivative” (E I du Pont de Nemours and Company, priority 2011, dated 2012).
Converted amounts (≈) assume the structure as drawn.

Columns and labels:
Format in all cases: physicochemical
[1] = Solubility in toluene (Compound Properties, Table 1); conditions: organic solvent or mixture
[2] = Solubility as observed during work-up of the synthesis; conditions: for solubility of the isolated solid (in words): in toluene and dichloromethane (DCM)
Protocol: To 2.0 g of dichlorobathophenanthroline (5 mM) from Example 1 was added 3.0 g (11 mM) boronic acid. To this was added 0.15 g Pd2 DBA3 (0.15 mM), 0.1 g tricyclohexylphosphine (0.35 mM) and 3.75 g potassium phosphate (17 mM), and all were dissolved into 30 mL dioxane and 15 mL water. This was mixed and heated in a glove box at 100° C. for 1 hr, then warmed gently (minimum rheostat setting) under nitrogen overnight. On reaching about 80° C. the mixture was a tan brown slurry which slowly became clear brown with a dense precipitate. As the solution refluxed (air condensor) a white powdery precipitate formed. The mixture was cooled and removed from the glove box. The dioxane was removed by evaporation and additional water added. A light brown gummy solid was isolated by filtration and washed with water. […] The product was Compound 4.
Take 2.0 g of dichloro-phen (8 mM) in glove box and add 4.7 g (17 mM) boronic acid. Add 0.15 g Pd2 DBA3 (0.15 mM), 0.1 g tricyclohexylphosphine (0.35 mM) and 3.75 g potassium phosphate (17 mM) and dissolve all into 30 mL dioxane and 15 mL water. Mix and heat in glove box in mantle at 100 C for 1 hr then warm gently (minimum rheostat setting) under nitrogen overnight. Solution immediately is dark purple but on reaching ˜80 C it is a tan brown slurry which slowly becomes clear brown. As the solution refluxes (air condensor) it remains clear brown. Cool and work up by removing from glove box and evaporate out the dioxane then add more water. Filter off light brown gummy solid and wash with water. […] The structure was confirmed by NMR analysis to be Compound 14:
Take 2.5 g of dichloro-phen (10 mM) in glove box and add 8.0 g (22 mM) boronic ester. Add 0.30 g Pd2 DBA3 (0.30 mM), 0.2 g tricylcohexylphosphine (0.70 mM) and 7.5 g potassium phosphate (34 mM) and dissolve all into 60 mL dioxane and 30 mL water. Mix and heat in glove box in mantle at 100 C for 1 hr then warm gently (minimum rheostat setting) under nitrogen overnight. Solution immediately is dark purple but on reaching ˜80 C it is a tan brown slurry which slowly becomes clear brown. […]

[3] = Solubility in anisole (footnotes of Table 1); conditions: organic solvent or mixture

| Structure (SMILES) | solubility [1] | also measured |
| --- | --- | --- |
| c1ccc(N(c2ccccc2)c2cccc(-c3ccnc4c3ccc3c(-c5cccc(N(c6ccccc6)c6ccccc6)c5)ccnc34)c2)cc1 [Compound 20] | 32200 µg/mL (≈ 48.3 mM) |  |
| c1ccc(-c2cc(-c3cccc(-n4c5ccccc5c5ccccc54)c3)nc3c2ccc2c(-c4ccccc4)cc(-c4cccc(-n5c6ccccc6c6ccccc65)c4)nc23)cc1 [Compound 1] | 4800 µg/mL (≈ 5.89 mM) |  |
| c1cc(-c2ccnc3c2ccc2c(-c4cccc(-n5c6ccccc6c6ccccc65)c4)ccnc23)cc(-n2c3ccccc3c3ccccc32)c1 [Compound 15] | 20000 µg/mL (≈ 30.2 mM) | solubility of the product (in words) ([2]; solvent not stated, observed at chromatography/crystallisation): extremely soluble |
| c1ccc(-c2cc(-c3ccc(N(c4ccccc4)c4ccccc4)cc3)c3ccc4c(-c5ccc(N(c6ccccc6)c6ccccc6)cc5)cc(-c5ccccc5)nc4c3n2)cc1 [Compound 2] | 7600 µg/mL (≈ 9.28 mM) |  |
| c1ccc(N(c2ccccc2)c2ccc(-c3ccnc4c3ccc3c(-c5ccc(N(c6ccccc6)c6ccccc6)cc5)ccnc34)cc2)cc1 [Compound 14, 4,7-bis(4-diphenylaminophenyl)-1,10-phenanthroline] |  | solubility of the isolated solid (in words) [2]: dissolves well |
| c1ccc(-c2ccc3c(c2)c2cc(-c4ccccc4)ccc2n3-c2cccc(-c3cc(-c4ccccc4)c4ccc5c(-c6ccccc6)cc(-c6cccc(-n7c8ccc(-c9ccccc9)cc8c8cc(-c9ccccc9)ccc87)c6)nc5c4n3)c2)cc1 [Compound 12] | 22800 µg/mL (≈ 20.4 mM) |  |
| Fc1ccccc1-c1cc(-c2ccccc2)c2ccc3c(-c4ccccc4)cc(-c4ccccc4F)nc3c2n1 [Compound 10] | 22200 µg/mL (≈ 42.6 mM) |  |

Now from value to compound, other results behind:

| solubility [1] | Structure (SMILES) | also measured |
| --- | --- | --- |
| 10100 µg/mL (≈ 9.27 mM) | c1ccc(-c2cc(-c3c4ccccc4c(-c4ccc(-c5cccc6ccccc56)cc4)c4ccccc34)nc3c2ccc2c(-c4ccccc4)cc(-c4c5ccccc5c(-c5ccc(-c6cccc7ccccc67)cc5)c5ccccc45)nc23)cc1 [Compound 11] |  |
| 2300 µg/mL (≈ 4.3 mM) | c1ccc(-c2cc(-c3ccccc3)c3ccc4c(-c5ccccc5)cc(-c5ccc6ccccc6c5)nc4c3n2)cc1 [Compound 18] |  |
| 4200 µg/mL (≈ 7.86 mM) | c1ccc(-c2cc(-c3ccccc3)c3ccc4c(-c5ccccc5)cc(-c5cccc6ccccc56)nc4c3n2)cc1 [Compound 17] |  |
| 25600 µg/mL (≈ 40.2 mM) | c1ccc(-c2ccccc2-c2cc(-c3ccccc3)c3ccc4c(-c5ccccc5)cc(-c5ccccc5-c5ccccc5)nc4c3n2)cc1 [Compound 9] |  |
| 1000 µg/mL (≈ 1.71 mM) | c1ccc(-c2cc(-c3ccc4ccccc4c3)nc3c2ccc2c(-c4ccccc4)cc(-c4ccc5ccccc5c4)nc23)cc1 [Compound 21] | solubility [3]: 3000 µg/mL (≈ 5.13 mM) |
| 2000 µg/mL (≈ 2.71 mM) | c1ccc(-c2cc(-c3ccc(-c4ccc5ccccc5c4)cc3)nc3c2ccc2c(-c4ccccc4)cc(-c4ccc(-c5ccc6ccccc6c5)cc4)nc23)cc1 [Compound 13] |  |
| 31300 µg/mL (≈ 38.2 mM) | c1ccc(-c2cc(-c3ccc(N(c4ccccc4)c4ccccc4)cc3)nc3c2ccc2c(-c4ccccc4)cc(-c4ccc(N(c5ccccc5)c5ccccc5)cc4)nc23)cc1 [Compound 4] | solubility of the isolated solid (in words) [2]: dissolved well |
| 800 µg/mL (≈ 1.26 mM) | c1ccc(-c2cccc(-c3cc(-c4ccccc4)c4ccc5c(-c6ccccc6)cc(-c6cccc(-c7ccccc7)c6)nc5c4n3)c2)cc1 [Compound 16] | solubility [3]: 5000 µg/mL (≈ 7.85 mM) |
| 4500 µg/mL (≈ 6.11 mM) | c1ccc(-c2cc(-c3ccc(-c4cccc5ccccc45)cc3)nc3c2ccc2c(-c4ccccc4)cc(-c4ccc(-c5cccc6ccccc56)cc4)nc23)cc1 [Compound 3] |  |
